Measurements as given in patent US20100152249A1, “COMPOSITONS AND METHOD FOR TREATMENT OF MOOD AND COGNITIVE IMPAIRMENTS” (BOARD OF TRUSTEES OF THE LELAND STANFORD JUNIOR UNIVERSITY, priority 2008, published 2010).

Test system: patients with depressive disorder
Assay: Open-label rosiglitazone added to treatment as usual for 12 weeks in patients with depressive disorder and surrogate IR blood markers
Assay type: in vivo, human
Procedure: Open-label PPAR agonist, rosiglitazone, titrated to a dose of 8 mg/day, was administered for 12 weeks to patients with depressive disorder receiving treatment as usual (TAU). Subjects were evaluated and surrogate IR blood markers were chosen based on fasting plasma glucose >100 mg/dL or triglyceride (TG) to high density lipoprotein (HDL) ratio of about 3.0 or greater.
Psychiatric Response to Treatment. […] Cohen's d for pre- to post-treatment HDRS-21 was 1.17, with an effect size of r=0.504. For CGI-S scores, Cohen's d and effect size r for CGI-S were 1.27 and 0.54, respectively. […] Even considering the very small sample size, the trajectory of decline in HDRS and CGI was linear.

[1] = 8 mg/day, 12 weeks, 8 completers

CN(CCOc1ccc(CC2SC(=O)NC2=O)cc1)c1ccccn1 (stereo not drawn) [rosiglitazone, 5-[4-[2-(N-methyl-N-(2-pyridyl)amino)ethoxy]benzyl]thiazolidine-2,4-dione]
CGI-S post-treatment mean (8 mg/day, 12 weeks, add-on to TAU, 8 completers, baseline mean 4.0, p=0.043): 2.9 | HDRS-21 post-treatment mean (8 mg/day, 12 weeks, add-on to TAU, 8 completers, baseline mean 19.9, repeated measures ANOVA p=0.019): 12.1 | Cohen's d for CGI-S [1]: 1.27 | Cohen's d for pre- to post-treatment HDRS-21 [1]: 1.17 | effect size r for CGI-S [1]: 0.54 | effect size r for pre- to post-treatment HDRS-21 [1]: 0.504 | patients showing ≧50% HDRS-21 score reduction [1]: 4 of the 8 | mean reduction in HDRS-21 scores (8 mg/day, 12 weeks, 8 completers, versus baseline): 39.3% | depression severity by Hamilton Depression Rating Scale and clinical assessment (CGI) scores (8 patients who completed the 12 week study, moderate effect sizes): significant declines
